Each block holds one compound with its values, some of them ahead of it.
Experiments:
[1] = molecular target: class III PI3K (Mus musculus, UniProt Q6PF93); experiment: Inhibition of autophagosome formation in EV-treated BMDCs, IL-10
[2] = test system: colonic lamina propria (cLP) cells; experiment: A2a blockade in antibiotic-pretreated mice given live or killed ASF519, flow cytometry of colonic lamina propria cells; format: in vivo, mouse; settings: daily i.p. injection
[3] = test system: fusion of autophagosomes with lysosomes; experiment: Inhibition of autophagosome-lysosome fusion in EV-treated BMDCs, IL-10

class III PI3K, sequence (Q6PF93 whole entry): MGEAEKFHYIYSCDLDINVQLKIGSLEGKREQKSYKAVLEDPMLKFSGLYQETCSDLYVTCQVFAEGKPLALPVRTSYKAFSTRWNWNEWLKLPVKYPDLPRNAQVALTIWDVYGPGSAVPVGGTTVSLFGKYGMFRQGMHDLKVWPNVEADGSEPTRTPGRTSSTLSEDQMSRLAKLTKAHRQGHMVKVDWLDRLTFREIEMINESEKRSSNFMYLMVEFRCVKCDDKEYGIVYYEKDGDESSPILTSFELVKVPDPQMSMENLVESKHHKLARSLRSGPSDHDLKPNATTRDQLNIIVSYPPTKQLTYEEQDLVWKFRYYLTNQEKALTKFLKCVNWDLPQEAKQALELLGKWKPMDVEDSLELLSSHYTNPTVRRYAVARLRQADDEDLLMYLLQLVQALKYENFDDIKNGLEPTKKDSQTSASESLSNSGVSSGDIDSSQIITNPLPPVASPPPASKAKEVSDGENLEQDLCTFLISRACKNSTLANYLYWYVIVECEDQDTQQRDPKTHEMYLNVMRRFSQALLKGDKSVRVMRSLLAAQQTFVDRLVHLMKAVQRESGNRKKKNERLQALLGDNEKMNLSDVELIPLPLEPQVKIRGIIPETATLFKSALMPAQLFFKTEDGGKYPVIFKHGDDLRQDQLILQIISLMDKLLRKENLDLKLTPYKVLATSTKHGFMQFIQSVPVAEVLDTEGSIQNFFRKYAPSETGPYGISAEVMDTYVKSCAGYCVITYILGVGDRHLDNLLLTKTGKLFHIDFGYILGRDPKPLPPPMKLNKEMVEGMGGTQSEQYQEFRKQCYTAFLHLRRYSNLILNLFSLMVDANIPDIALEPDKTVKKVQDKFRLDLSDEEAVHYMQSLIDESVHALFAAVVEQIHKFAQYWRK
class III PI3K, sequence (Q8VD65 whole entry partner): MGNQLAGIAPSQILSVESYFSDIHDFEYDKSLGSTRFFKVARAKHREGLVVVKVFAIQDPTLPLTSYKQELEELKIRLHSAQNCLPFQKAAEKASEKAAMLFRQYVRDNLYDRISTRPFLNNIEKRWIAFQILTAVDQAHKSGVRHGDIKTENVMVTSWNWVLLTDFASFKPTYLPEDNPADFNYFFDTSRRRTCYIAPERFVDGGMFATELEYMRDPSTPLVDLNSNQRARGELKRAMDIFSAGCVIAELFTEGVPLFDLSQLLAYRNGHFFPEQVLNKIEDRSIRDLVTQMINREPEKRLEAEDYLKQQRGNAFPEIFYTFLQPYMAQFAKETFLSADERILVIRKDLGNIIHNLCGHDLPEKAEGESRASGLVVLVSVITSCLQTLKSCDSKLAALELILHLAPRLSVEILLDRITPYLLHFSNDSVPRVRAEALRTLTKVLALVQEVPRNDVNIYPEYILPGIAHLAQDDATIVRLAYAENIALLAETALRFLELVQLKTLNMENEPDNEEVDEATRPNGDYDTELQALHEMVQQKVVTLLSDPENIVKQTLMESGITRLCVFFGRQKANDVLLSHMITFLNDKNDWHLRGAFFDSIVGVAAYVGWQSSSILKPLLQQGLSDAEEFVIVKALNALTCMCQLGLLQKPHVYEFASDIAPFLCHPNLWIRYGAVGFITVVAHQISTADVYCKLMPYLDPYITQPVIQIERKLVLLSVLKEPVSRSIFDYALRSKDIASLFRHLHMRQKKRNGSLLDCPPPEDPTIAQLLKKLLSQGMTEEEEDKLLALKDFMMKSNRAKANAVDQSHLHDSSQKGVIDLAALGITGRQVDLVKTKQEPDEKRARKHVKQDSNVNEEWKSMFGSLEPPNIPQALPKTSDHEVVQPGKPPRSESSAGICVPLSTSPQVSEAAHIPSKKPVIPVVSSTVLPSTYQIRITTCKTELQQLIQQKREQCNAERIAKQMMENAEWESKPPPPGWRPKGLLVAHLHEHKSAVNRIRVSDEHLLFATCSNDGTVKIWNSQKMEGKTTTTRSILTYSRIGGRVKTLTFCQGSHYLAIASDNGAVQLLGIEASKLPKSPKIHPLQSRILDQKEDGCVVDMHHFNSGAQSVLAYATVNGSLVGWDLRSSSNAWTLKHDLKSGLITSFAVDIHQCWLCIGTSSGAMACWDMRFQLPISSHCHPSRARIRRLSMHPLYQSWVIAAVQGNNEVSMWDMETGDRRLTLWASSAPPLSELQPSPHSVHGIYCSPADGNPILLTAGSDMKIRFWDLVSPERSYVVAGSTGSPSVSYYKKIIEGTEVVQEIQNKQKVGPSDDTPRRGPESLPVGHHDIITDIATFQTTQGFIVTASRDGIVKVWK
class III PI3K, sequence (O88597 whole entry partner): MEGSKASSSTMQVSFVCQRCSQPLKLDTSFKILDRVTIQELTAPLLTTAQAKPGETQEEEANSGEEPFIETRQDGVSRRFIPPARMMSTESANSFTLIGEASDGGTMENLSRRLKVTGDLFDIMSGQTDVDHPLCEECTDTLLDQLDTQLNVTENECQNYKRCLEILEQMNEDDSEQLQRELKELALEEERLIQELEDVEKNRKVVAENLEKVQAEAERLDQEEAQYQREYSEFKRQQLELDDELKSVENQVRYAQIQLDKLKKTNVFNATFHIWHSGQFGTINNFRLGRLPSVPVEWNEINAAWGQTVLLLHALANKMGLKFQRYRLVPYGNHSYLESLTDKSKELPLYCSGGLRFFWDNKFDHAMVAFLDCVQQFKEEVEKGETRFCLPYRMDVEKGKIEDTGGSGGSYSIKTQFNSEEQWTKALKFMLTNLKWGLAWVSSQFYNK
class III PI3K, sequence (Q8CDJ3 whole entry partner): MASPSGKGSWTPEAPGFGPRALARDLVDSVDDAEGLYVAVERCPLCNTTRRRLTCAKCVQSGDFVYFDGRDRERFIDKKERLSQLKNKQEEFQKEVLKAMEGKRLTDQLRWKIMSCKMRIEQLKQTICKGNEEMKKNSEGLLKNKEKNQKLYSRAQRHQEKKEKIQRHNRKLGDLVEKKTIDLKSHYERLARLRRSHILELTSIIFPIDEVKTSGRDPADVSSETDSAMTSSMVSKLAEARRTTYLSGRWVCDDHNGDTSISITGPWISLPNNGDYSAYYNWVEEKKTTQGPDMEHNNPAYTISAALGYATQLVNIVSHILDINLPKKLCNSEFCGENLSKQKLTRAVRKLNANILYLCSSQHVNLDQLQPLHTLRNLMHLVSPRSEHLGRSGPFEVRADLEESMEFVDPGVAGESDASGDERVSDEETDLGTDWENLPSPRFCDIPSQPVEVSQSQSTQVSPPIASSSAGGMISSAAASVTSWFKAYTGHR

effect on IL-10 induction of EV-treated BMDCs [1]: efficiently blocked IL-10 induction
SMILES: Cn1cnc(N)c2ncnc1-2 [3-methyladenine]

SMILES: Nc1nc(NCCc2ccc(O)cc2)nc2nc(-c3ccco3)nn12 [ZM241385]
effect of A2a antagonist on ASF519-induced IL-10 producing DCs [2]: significantly decreased
effect of A2a blockage on ASF519-decreased B cells and CD11b+ CD45+ cells [2]: restored

SMILES: CCN(CCO)CCCC(C)Nc1ccnc2cc(Cl)ccc12 (stereo not shown) [hydroxychloroquine]
effect on IL-10 induction of EV-treated BMDCs [3]: efficiently blocked IL-10 induction
